Reference: the NIST ThermoML archive (doi:10.1016/j.jct.2009.04.006)
Numbers after ± are expanded uncertainties.

Experiments:
[1] = refractive index (Na D-line) (dimensionless); conditions: 298.15 K; 101.33 kPa; Liquid; Standard Abbe refractometry
[2] = Liquid; for mass density: 101.33 kPa, Pycnometric method; for vapor or sublimation pressure: Isoteniscope

Structure (SMILES)	refractive index [1]	mass density ([2]; 298.15 K) [kg/m3]	vapor or sublimation pressure ([2]; 298.15 K) [kPa]	vapor or sublimation pressure ([2]; 308.15 K) [kPa]	vapor or sublimation pressure ([2]; 318.15 K) [kPa]
CC(Cl)(Cl)Cl [1,1,1-trichloroethane]	1.4354 ± 0.0004	1328.7 ± 0.6	16.64 ± 0.19	25.85 ± 0.22	37.61 ± 0.25
CCCCCl [1-chlorobutane]	1.3991 ± 0.0004	880.9 ± 0.4	13.72 ± 0.15	20.66 ± 0.19	31.46 ± 0.23
O=C1CCCCC1 [cyclohexanone]	1.4482 ± 0.0004	943 ± 0.4	0.64 ± 0.05	1.16 ± 0.06	1.92 ± 0.06
